ChEMBL document CHEMBL5620380, “Identification of 5-[5-cyano-1-(pyridin-2-ylmethyl)-1H-indole-3-carboxamido] thiazole-4-carboxylic acid as a promising dual inhibitor of urate transporter 1 and xanthine oxidase” (Eur J Med Chem, 2023)
Activity calls are given as the source filed them. No cut-off for these calls is given here.

Key:
[1] = target: T1, Solute carrier family 22 member 12 (Homo sapiens, UniProt Q96S37); test: Inhibition of URAT1 (unknown origin)-mediated 14C uric acid uptake expressed in HEK293 cells using 14C uric acid as substrate at 10 uM by liquid scintillation counting analysis; type: cell-based
T1 sequence (Q96S37 whole entry): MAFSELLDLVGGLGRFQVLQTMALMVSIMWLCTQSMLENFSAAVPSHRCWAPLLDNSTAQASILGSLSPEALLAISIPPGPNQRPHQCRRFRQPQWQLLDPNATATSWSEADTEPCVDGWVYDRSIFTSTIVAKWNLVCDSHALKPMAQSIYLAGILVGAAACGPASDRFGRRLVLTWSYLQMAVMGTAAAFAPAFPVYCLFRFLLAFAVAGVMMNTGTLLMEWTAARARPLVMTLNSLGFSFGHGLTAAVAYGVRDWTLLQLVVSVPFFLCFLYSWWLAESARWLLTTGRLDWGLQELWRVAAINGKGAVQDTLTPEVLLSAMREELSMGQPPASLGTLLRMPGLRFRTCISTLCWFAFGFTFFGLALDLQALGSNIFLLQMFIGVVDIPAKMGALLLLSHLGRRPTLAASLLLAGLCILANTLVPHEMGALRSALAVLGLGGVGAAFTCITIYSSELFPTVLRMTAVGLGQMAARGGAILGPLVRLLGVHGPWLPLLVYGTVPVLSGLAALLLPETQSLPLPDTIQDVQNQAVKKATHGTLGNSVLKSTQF

Rattus norvegicus [2] = test: Hypouricemic activity against potassium oxonate-induced hyperuricemia Sprague-Dawley rat model assessed as decrease in serum uric acid level at 10 mg/kg, ig administered 1 hr post-potassium oxonate challenge and measured after 1 to 5 hrs; type: functional, organism-based; details: time 1-5 hrs
Rattus norvegicus [3] = test: Hypouricemic activity against potassium oxonate-induced hyperuricemia Sprague-Dawley rat model assessed as decrease in AUC of serum uric acid level at 10 mg/kg, ig administered 1 hr post-potassium oxonate challenge and measured after 1 to 5 hrs; type: functional; details: po, time 1-5 hrs
[4] = target: T2, Xanthine dehydrogenase/oxidase (Bos taurus, UniProt P80457); test: Mixed inhibition of bovine XO assessed as increase in Km with decrease in Vmax using xanthine as substrate by Lineweaver-Burk plot analysis; details: cattle
[5] = target: T2, Xanthine dehydrogenase/oxidase; test: Potency index, ratio of allopurinol IC50 to test compound IC50 for inhibition of bovine XO; details: cattle
Rattus norvegicus [6] = test: Hypouricemic activity against potassium oxonate-induced hyperuricemia Sprague-Dawley rat model assessed as decrease in serum uric acid level at 10 mg/kg, ig administered 1 hr post-potassium oxonate challenge and measured after 3 hrs; type: functional; details: po
[7] = target: T2, Xanthine dehydrogenase/oxidase; test: Inhibition of bovine XO assessed as inhibition of uric acid production using xanthine as substrate preincubated for 25 mins followed by substrate addition and measured for first 2 mins by spectrophotometric analysis
[8] = target: T2, Xanthine dehydrogenase/oxidase; test: Inhibition of bovine XO assessed as inhibition of uric acid production using xanthine as substrate at 10 uM preincubated for 25 mins followed by substrate addition and measured for first 2 mins by spectrophotometric analysis; details: cattle, time 27 min

T2 sequence (P80457 whole entry): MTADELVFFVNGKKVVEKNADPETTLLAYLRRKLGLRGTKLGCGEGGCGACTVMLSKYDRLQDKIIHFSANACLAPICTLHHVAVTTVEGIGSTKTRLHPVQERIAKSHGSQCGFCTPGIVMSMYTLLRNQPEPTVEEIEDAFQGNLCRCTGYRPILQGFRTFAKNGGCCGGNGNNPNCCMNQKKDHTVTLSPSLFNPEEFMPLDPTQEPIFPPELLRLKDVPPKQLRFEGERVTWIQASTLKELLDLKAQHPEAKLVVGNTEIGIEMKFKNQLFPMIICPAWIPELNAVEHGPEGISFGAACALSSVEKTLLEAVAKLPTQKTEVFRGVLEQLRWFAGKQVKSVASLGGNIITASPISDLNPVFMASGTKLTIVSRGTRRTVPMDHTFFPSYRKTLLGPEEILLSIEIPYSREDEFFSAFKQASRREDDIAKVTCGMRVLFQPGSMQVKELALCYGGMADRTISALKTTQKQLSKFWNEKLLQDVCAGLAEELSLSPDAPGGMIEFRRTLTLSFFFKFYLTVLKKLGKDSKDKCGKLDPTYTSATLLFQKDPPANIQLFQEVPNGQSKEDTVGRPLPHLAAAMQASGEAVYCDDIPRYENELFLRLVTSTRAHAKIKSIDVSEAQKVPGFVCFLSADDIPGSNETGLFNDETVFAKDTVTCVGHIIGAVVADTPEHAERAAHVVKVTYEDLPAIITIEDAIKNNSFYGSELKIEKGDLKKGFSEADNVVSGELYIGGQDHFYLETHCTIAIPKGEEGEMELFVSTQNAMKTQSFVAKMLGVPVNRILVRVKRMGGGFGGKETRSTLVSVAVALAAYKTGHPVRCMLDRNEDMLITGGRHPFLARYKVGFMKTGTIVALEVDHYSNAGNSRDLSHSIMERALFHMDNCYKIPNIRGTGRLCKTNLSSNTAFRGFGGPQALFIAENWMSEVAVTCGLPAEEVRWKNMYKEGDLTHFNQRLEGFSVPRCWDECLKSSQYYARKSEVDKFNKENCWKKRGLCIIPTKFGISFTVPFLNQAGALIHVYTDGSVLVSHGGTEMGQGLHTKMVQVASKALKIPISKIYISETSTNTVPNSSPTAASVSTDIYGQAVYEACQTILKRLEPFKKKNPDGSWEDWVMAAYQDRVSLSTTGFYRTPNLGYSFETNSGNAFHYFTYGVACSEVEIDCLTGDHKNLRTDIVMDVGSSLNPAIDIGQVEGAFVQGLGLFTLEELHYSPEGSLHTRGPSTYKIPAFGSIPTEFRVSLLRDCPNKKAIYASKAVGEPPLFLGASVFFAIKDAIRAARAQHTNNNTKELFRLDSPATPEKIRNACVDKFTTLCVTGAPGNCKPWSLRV

Row | SMILES | inhibition at 10 µM [1] | other results
1 | O=C(O)c1ccccc1NC(=O)c1cn(Cc2ccccc2)c2ccccc12 | 41.3% | 
2 | O=C(O)c1cccc(NC(=O)c2c[nH]c3ccccc23)c1 | 25.8% | 
3 | O=C(O)CSc1nnc(Br)n1-c1ccc(C2CC2)c2ccccc12 | 47% | 
4 | O=C(O)c1ccccc1NC(=O)c1cn(Cc2ccc(Br)cc2)c2ccccc12 | 73.6% | 
5 | O=C(O)c1ccccc1NC(=O)c1cn(Cc2cscn2)c2ccccc12 | 64.4% | 
6 | O=C(O)c1ccccc1NC(=O)c1cn(Cc2ccccn2)c2ccccc12 | 81.4% | 
7 | O=C(O)c1ccccc1NC(=O)c1cn(Cc2ccccn2)c2cc(F)ccc12 | 51.6% | 
8 | O=C(O)c1ccccc1NC(=O)c1cn(Cc2ccc(F)cc2)c2ccccc12 | 73.4% | 
9 | COc1ccc(/C=C/C(=O)Nc2ccccc2C(=O)O)cc1OC | 44.9% | Activity (Rattus norvegicus [2]): Active
10 | O=C(O)c1ccccc1NC(=O)c1cn(Cc2ccc(Cl)cc2)c2ccccc12 | 69.4% | 
11 | COc1ccc(Cn2cc(C(=O)Nc3ccccc3C(=O)O)c3ccccc32)cc1 | 53.9% | 
12 | O=C(O)c1ccccc1NC(=O)c1cn(Cc2cccc(F)c2)c2ccccc12 | 48% | 
13 | O=C(O)c1ccccc1NC(=O)c1cn(C(=O)c2ccccc2)c2ccccc12 | 10.9% | 
14 | O=C(O)c1ccccc1NC(=O)c1cn(Cc2ccncc2)c2ccccc12 | 68.4% | 
15 | N#Cc1ccc2c(C(=O)Nc3ccccc3C(=O)O)cn(Cc3ccccn3)c2c1 | 65.7% | 
16 | O=C(O)c1ccccc1NC(=O)c1cn(Cc2ncccn2)c2ccccc12 | 49.9% | 
17 | N#Cc1ccc2c(c1)c(C(=O)Nc1scnc1C(=O)O)cn2Cc1ccccn1 | 48% | inhibition in vivo at 10 mg/kg (Rattus norvegicus [3]): 25.8%; inhibition (INH) [4]: Active; Ratio IC50 [5]: 9.1; inhibition in vivo at 10 mg/kg (Rattus norvegicus [6]): 22.3%; IC50 [7]: 1010 nM

Row | SMILES | inhibition at 10 µM [1] | other results
18 | O=C(O)c1ccccc1NC(=O)c1c[nH]c2ccccc12 | 33.2% | 
19 | N#Cc1ccc2c(c1)c(C(=O)Nc1ncc(C(=O)O)s1)cn2Cc1ccccn1 | 15.9% | IC50 [7]: 2120 nM
20 | N#Cc1ccc2c(c1)c(C(=O)Nc1cc[nH]c1C(=O)O)cn2Cc1ccccn1 | 51% | IC50 [7]: 2670 nM
21 | Cc1ccc(Cn2cc(C(=O)Nc3ccccc3C(=O)O)c3ccccc32)cc1 | 61% | 
22 | Cc1ccc2c(C(=O)Nc3ccccc3C(=O)O)cn(Cc3ccccn3)c2c1 | 49.1% | 
23 | Cc1ccc2c(c1)c(C(=O)Nc1ccccc1C(=O)O)cn2Cc1ccccn1 | 46.8% | 
24 | N#Cc1ccc2c(c1)c(C(=O)Nc1ccccc1C(=O)O)cn2Cc1ccccn1 | 60.7% | inhibition at 10 µM [8]: 33.5%
25 | O=C(O)c1ccccc1NC(=O)c1cn(Cc2cccnn2)c2ccccc12 | 10.4% | 
26 | O=C(O)c1ccc(NC(=O)c2c[nH]c3ccccc23)cc1 | 0.1% | 
27 | O=C(O)c1ccccc1NC(=O)c1cn(Cc2cccnc2)c2ccccc12 | 43.1% | 
28 | O=C(O)c1ccccc1NC(=O)c1cn(Cc2cccs2)c2ccccc12 | 56.7% | 
29 | Oc1ncnc2[nH]ncc12 |  | Activity (Rattus norvegicus [2]): Active
30 | O=C(O)c1ccccc1NC(=O)c1cn(Cc2ccccc2F)c2ccccc12 | 40.7% | 
31 | O=C(O)c1ccccc1NC(=O)c1cn(Cc2ccccn2)c2ccc(F)cc12 | 51.1% | 
32 | CC(C)(C)c1ccc(Cn2cc(C(=O)Nc3ccccc3C(=O)O)c3ccccc32)cc1 | -4.8% | 
33 | O=C(O)c1ccccc1NC(=O)c1cn(Cc2cnccn2)c2ccccc12 | 52.7% | 
